This passage reports viability results from article PMC11995724, “Antibiotic target discovery by integrated phenotypic and activity-based profiling of electrophilic fragments” (Cell chemical biology, 2025).

Each structure is given as a SMILES string.

The nature of the data set: in vitro. The settings on record: human, hek293t cells.
As for `N#CC(=Cc1ccc(F)cc1)C(=O)Nc1ccccc1C(F)(F)F` [8-I18, 2-cyano-3-(4-fluorophenyl)-N-[2-(trifluoromethyl)phenyl]prop-2-enamide], the viability at 48 h, 25 µM stood at 81.7%. With `CC(C)NC(=O)C(C#N)=Cc1ccc(-c2ccc([N+](=O)[O-])cc2)o1` [8-I19, 2-cyano-3-[5-(4-nitrophenyl)furan-2-yl]-N-(propan-2-yl)prop-2-enamide], the viability at 48 h, 25 µM turned out to be 93%. Under `N#CC(=Cc1ccco1)C(=O)Nc1cccc(Cn2cccn2)c1` [8-I20, 2-cyano-3-(furan-2-yl)-N-{3-[(1H-pyrazol-1-yl)methyl]phenyl}prop-2-enamide] stands 82.1%. Then `Cc1ccc(C=C(C#N)C(=O)NC(C)C)o1` [8-I21, 2-cyano-3-(5-methylfuran-2-yl)-N-(propan-2-yl)prop-2-enamide], with 95.7%; and `CCOc1ccc(C=C(C#N)C(=O)Nc2ccncc2)cc1` [8-I22, 2-cyano-3-(4-ethoxyphenyl)-N-(pyridin-4-yl)prop-2-enamide], with 99.3%. Then `Cc1ccccc1NC(=O)C(C#N)=Cc1ccc2c(c1)OCCO2` [8-J03, 2-cyano-3-(2,3-dihydro-1,4-benzodioxin-6-yl)-N-(2-methylphenyl)prop-2-enamide], with 93.5%. As to `C=CCNC(=O)C(C#N)=Cc1ccc(C(=O)O)cc1` [8-J04, 4-{2-cyano-2-[(prop-2-en-1-yl)carbamoyl]eth-1-en-1-yl}benzoic acid], the viability at 48 h, 25 µM amounted to 87.1%. In the case of `N#CC(=Cc1ccc(C#N)cc1)C(=O)Nc1cccc(Cl)c1Cl` [8-J05, 2-cyano-3-(4-cyanophenyl)-N-(2,3-dichlorophenyl)prop-2-enamide], the viability at 48 h, 25 µM was 112%. Then `N#CC(=Cc1cccc(Cl)c1Cl)C(=O)NCCc1ccccc1` [8-J06, 2-cyano-3-(2,3-dichlorophenyl)-N-(2-phenylethyl)prop-2-enamide], with 10.1%; and `Cc1cccc(C=C(C#N)C(=O)NC(C)C)c1` [8-J07, 2-cyano-3-(3-methylphenyl)-N-(propan-2-yl)prop-2-enamide], with 94.3%; and `CC(C)NC(=O)C(C#N)=Cc1ccc(Cl)c([N+](=O)[O-])c1` [8-J08, 3-(4-chloro-3-nitrophenyl)-2-cyano-N-(propan-2-yl)prop-2-enamide], with 0.544%. Regarding `N#CC(=Cc1cccc2ccccc12)C(=O)NCc1ccc(Cl)cc1` [8-J09, N-[(4-chlorophenyl)methyl]-2-cyano-3-(naphthalen-1-yl)prop-2-enamide], the viability at 48 h, 25 µM is 66%. Then `Cn1cc(C=C(C#N)C(=O)NCc2ccccc2)cn1` [8-J10, N-benzyl-2-cyano-3-(1-methyl-1H-pyrazol-4-yl)prop-2-enamide], with 111%. Then `CC(NC(=O)C(C#N)=Cc1ccc(-c2ccccc2)cc1)c1ccccc1` (stereo not shown) [8-J11, 3-{[1,1'-biphenyl]-4-yl}-2-cyano-N-(1-phenylethyl)prop-2-enamide], with 26.5%. `COc1ccc(C=C(C#N)C(=O)NCc2ccco2)cc1` [8-J12, 2-cyano-N-[(furan-2-yl)methyl]-3-(4-methoxyphenyl)prop-2-enamide]: the viability at 48 h, 25 µM came to 112%. Then `N#CC(=Cc1cccc(Cl)c1)C(=O)Nc1ccccc1C(F)(F)F` [8-J13, 3-(3-chlorophenyl)-2-cyano-N-[2-(trifluoromethyl)phenyl]prop-2-enamide], with 101%. For `N#CC(=Cc1ccccc1)C(=O)Nc1nnn[nH]1` [8-J14, 2-cyano-3-phenyl-N-(1H-1,2,3,4-tetrazol-5-yl)prop-2-enamide], the viability at 48 h, 25 µM was 111%.

On to `CCC1SC(=C(C#N)C(N)=O)N(c2ccc(C)cc2)C1=O` (stereo not shown) [8-J15, 2-cyano-2-[5-ethyl-3-(4-methylphenyl)-4-oxo-1,3-thiazolidin-2-ylidene]acetamide], for which the viability at 48 h, 25 µM came out at 117%. Consider `Cc1cc(C=C(C#N)C(=O)NCc2ccco2)cc(C)c1O` [8-J16, 2-cyano-N-[(furan-2-yl)methyl]-3-(4-hydroxy-3,5-dimethylphenyl)prop-2-enamide], for which the viability at 48 h, 25 µM is 114%.

As for `Cc1ccc(NC(=O)C(C#N)=Cc2cccc([N+](=O)[O-])c2)cc1` [8-J17, 2-cyano-N-(4-methylphenyl)-3-(3-nitrophenyl)prop-2-enamide], the viability at 48 h, 25 µM turned out to be 88.1%. Then `COc1ccc(C=C(C#N)C(=O)NC(C)c2ccccc2)cc1O` (stereo not shown) [8-J18, 2-cyano-3-(3-hydroxy-4-methoxyphenyl)-N-(1-phenylethyl)prop-2-enamide], with 93.3%; and `COc1ccc(C=C(C#N)C(=O)Nc2ccccc2OC)cc1O` [8-J19, 2-cyano-3-(3-hydroxy-4-methoxyphenyl)-N-(2-methoxyphenyl)prop-2-enamide], with 107%. For `N#CC(=Cc1ccc(OC(F)F)cc1)C(=O)N1CCCCC1` [8-J20, 3-[4-(difluoromethoxy)phenyl]-2-(piperidine-1-carbonyl)prop-2-enenitrile], the viability at 48 h, 25 µM turned out to be 82.8%. Then `N#CC(=Cc1cccc(Cl)c1Cl)C(N)=O` [8-J21, 2-cyano-3-(2,3-dichlorophenyl)prop-2-enamide], with 121%; and `N#CC(=Cc1cccc(F)c1)C(=O)NCCc1ccccc1` [8-J22, 2-cyano-3-(3-fluorophenyl)-N-(2-phenylethyl)prop-2-enamide], with 103%; and `COc1ccc(C=C(C#N)C(=O)Nc2ccc(Cl)cc2Cl)cc1` [8-K03, 2-cyano-N-(2,4-dichlorophenyl)-3-(4-methoxyphenyl)prop-2-enamide], with 104%. Under `COc1cccc(NC(=O)C(C#N)=Cc2csnn2)c1` [8-K04, 2-cyano-N-(3-methoxyphenyl)-3-(1,2,3-thiadiazol-4-yl)prop-2-enamide] stands 80.5%; under `N#CC(=Cc1ccc(Sc2ccccc2)o1)C(=O)Nc1ccccc1` [8-K05, 2-cyano-N-phenyl-3-[5-(phenylsulfanyl)furan-2-yl]prop-2-enamide], 70%. Then `N#CC(=Cc1ccc(F)cc1)C(=O)NCCc1cccc(Cl)c1` [8-K06, N-[2-(3-chlorophenyl)ethyl]-2-cyano-3-(4-fluorophenyl)prop-2-enamide], with 49.6%. As to `Cc1cccc(C=C(C#N)C(=O)NC2CCCCC2)c1` [8-K07, 2-cyano-N-cyclohexyl-3-(3-methylphenyl)prop-2-enamide], the viability at 48 h, 25 µM amounted to 45%. As to `CCCCNC(=O)C(C#N)=Cc1cc(F)ccc1F` [8-K08, N-butyl-2-cyano-3-(2,5-difluorophenyl)prop-2-enamide], the viability at 48 h, 25 µM turned out to be 39.8%.

As for `N#CC(=Cc1ccccc1)C(=O)Nc1nncs1` [8-K09, 2-cyano-3-phenyl-N-(1,3,4-thiadiazol-2-yl)prop-2-enamide], the viability at 48 h, 25 µM worked out at 94.2%. Under `COc1cc(Cl)c(C)cc1NC(=O)C(C#N)=Cc1c(C)n[nH]c1C` [8-K10, N-(4-chloro-2-methoxy-5-methylphenyl)-2-cyano-3-(3,5-dimethyl-1H-pyrazol-4-yl)prop-2-enamide] stands 83.6%; under `N#CC(=Cc1cccc2ccccc12)C(=O)Nc1ccccc1Cl` [8-K11, N-(2-chlorophenyl)-2-cyano-3-(naphthalen-1-yl)prop-2-enamide], 80.5%.

A word on the viability: it is a read-out of living cells in per cent, often relative to untreated cells.
